Measurements reported in patent US20100056519A1, “COMPOSITION AND METHOD FOR REDUCING PLATELET ACTIVATION AND FOR THE TREATMENT OF THROMBOTIC EVENTS” (priority 2008, published 2010).

How the values were obtained:
Type in all cases: cell-based, human
platelets [1] = test: Conventional platelet aggregation in PRP induced by 1 μg/ml collagen; conditions: for Platelet Aggregation (%), Collagen 1 μg/mL: Mean ± SD
Experimental: (§1) The methodology employed was conventional aggregation induced by 5 μM ADP, 1 μg/ml collagen, 10 μM TRAP, whole blood aggregation with 1 μg/ml collagen, Ultegra, and PFA-100 Analyzers, expression of 14 intact, and TRAP-stimulated major receptors by whole blood flow cytometry were utilized to assess platelet activity after preincubation with escalating concentrations of E5555 (20 ng/ml, 50 ng/ml, and 100 ng/ml). The experiments were performed in healthy volunteers, CAD patients treated with ASA, and CAD patients treated with ASA and clopidogrel combination (n=10, for each group).
(§2) An Informed Consent was obtained from all volunteers. Drug users were excluded from data analysis. The study was approved by Quorum Institutional Review Board. All subjects underwent blood sampling after at least 30 minutes of rest and two or more hours of fasting. Blood (28 ml) was drawn between 8 and 10 a.m. in order to avoid any diurnal influence and sampled from an antecubital vein using a 21-gauge butterfly needle containing 3.2% sodium citrate (1:9 volume) after having discarded the first 1.5 ml of free running blood. Four Vacutainer tubes (7.0 ml) were collected for a total of 28 ml of whole blood-citrate mixture from each study participant. Chronologically, blood samples were delivered to the core laboratory facility within 45 minutes after drawing. Then all tubes of blood-citrate mixture were pooled. One portion of pooled blood (5 ml) was kept as an internal control and pretreated with the vehicle. The remaining blood (23 ml) was used for the in vitro exposure to E5555 at concentrations of 20 ng/ml, 50 ng/ml, and 100 ng/ml. […] The platelet aggregation studies, Rapid Analyzers measures, and flow cytometry preparations were initiated within no more than 110 minutes following the blood draw, incubation with the drug, and preparation of the samples.
(§3) Platelet counts were determined in each PRP sample with a Coulter Counter ZM (Coulter Co., Hialeah, Fla.). Platelet numbers were adjusted to 3.50×10^8/ml for aggregation using homologous platelet-poor plasma. Platelet aggregation was stimulated with 5 μM ADP, 1 μg/ml collagen, or 10 μM TRAP. All agonists were obtained from Chronolog Corporation (Havertown, Pa.) and Sigma (St. Louis, Miss.). Platelet aggregation experiments were performed using a Chrono-Log Lumi-Aggregometer (model 560-Ca). Aggregation curves were recorded for 4 minutes and analyzed according to internationally established standards using Aggrolink® software. Platelet aggregability was expressed as the percentage of light transmittance change from baseline using platelet-poor plasma as a reference.

platelets [2] = test: Platelet aggregation induced by 10 μM TRAP; conditions: for Platelet Aggregation (%), TRAP 10 μM: Mean ± SD
Experimental: as §1, §2, §3

PECAM-1 (CD31) = test: Unstimulated whole blood flow cytometry, PECAM-1; conditions: for PECAM-1 (CD31), Mean Fluorescence Intensity: unstimulated, Mean ± SD
Experimental: as §1, §2
(§4) Formation of platelet-leukocyte aggregates was assessed by dual labeling with pan-platelet marker (CD151), and then with CD14, the macrophage receptor for endotoxin lipopolysaccharides (PharMingen, and Coulter, San Diego, Calif., USA). The tubes were then covered with aluminum foil and incubated at 37° C. for 40 minutes with gentle rotation. After incubation, samples were immediately analyzed on a Becton Dickinson FACScan flow cytometer. The instrument was set up to measure forward light scatter, and FITC fluorescence. All parameters were collected using four-decade logarithmic amplification. The data was retrieved in list mode files and then analyzed. P selectin was expressed as percent positive cells. Other antigens were expressed as log mean fluorescence intensity.

GPIb (CD42b) = test: Unstimulated whole blood flow cytometry, GPIb; conditions: for GPIb (CD42b), Mean Fluorescence Intensity: unstimulated, Mean ± SD
Experimental: as §1, §2, §4

CD-40L (CD154) = test: Unstimulated whole blood flow cytometry, CD40-ligand; conditions: for CD-40L (CD154), Mean Fluorescence Intensity: unstimulated, Mean ± SD
Experimental: as §1, §2, §4

WEDE15 = test: Unstimulated whole blood flow cytometry, WEDE15; conditions: Mean ± SD
Experimental: as §1, §2, §4

[3] = system: Thrombospondin-Receptor (CD36); test: TRAP-stimulated whole blood flow cytometry, thrombospondin receptor; conditions: Mean ± SD
Experimental: as §1, §2, §4
For flow cytometry (TRAP-stimulated) all of the above flow cytometry experiments were identically repeated utilizing prestimulation with 10 μmol/L TRAP for 5 minutes at 37° C. To determine statistics, a Paired Sign Test was used to define significance of differences between vehicle and E5555-treated groups. The Mann-Whitney U test was used to analyze nonparametric data. Normally distributed data were expressed as mean±standard error (m±SE), and skewed data as median (range). All P-values were two sided. All analysis was performed using the SPSS v9.0 program (SPSS Inc., Chicago, Ill.).

[4] = ASA-treated patients with coronary artery disease
[5] = CAD patients treated with ASA+clopidogrel
[6] = E5555 20 ng/ml, CAD patients treated with ASA + clopidogrel
[7] = E5555 20 ng/ml, CAD patients treated with ASA
[8] = E5555 20 ng/ml, healthy volunteers
[9] = E5555 50 ng/ml, CAD patients treated with ASA + clopidogrel
[10] = E5555 50 ng/ml, CAD patients treated with ASA
[11] = E5555 50 ng/ml, healthy volunteers
[12] = E5555 100 ng/ml, CAD patients treated with ASA + clopidogrel
[13] = E5555 100 ng/ml, CAD patients treated with ASA
[14] = E5555 100 ng/ml, healthy volunteers
[15] = healthy volunteers, E5555 20, 50, and 100 ng/ml
[16] = overall summary, stimulation not stated
[17] = E5555 20 ng/ml, Patients (ASA + C)
[18] = E5555 50 ng/ml, Patients (ASA + C)
[19] = E5555 100 ng/ml, Patients (ASA + C)
[20] = E5555 100 ng/ml, Patients (ASA)

Br.CCOc1cc2c(c(F)c1OCC)C(=N)N(CC(=O)c1cc(N3CCOCC3)c(OC)c(C(C)(C)C)c1)C2 [E5555, 1-(3-tert-butyl-4-methoxy-5-morpholinophenyl)-2-(5,6-diethoxy-7-fluoro-1-imino-1,3-dihydro-2H-isoindol-2-yl)ethanone hydrobromide]
inhibition of platelet activity, aggregation induced by collagen (platelets [1]; [4]): 10-12% | collagen-induced aggregation, effect in words (platelets [1]; [5]): moderate inhibition | Platelet Aggregation (%), Collagen 1 μg/mL (platelets [1]; [6]): 20.6 ± 3.2 % | Platelet Aggregation (%), Collagen 1 μg/mL (platelets [1]; [7]): 23.9 ± 4.8 % | Platelet Aggregation (%), Collagen 1 μg/mL (platelets [1]; [8]): 67.6 ± 6.2 % | Platelet Aggregation (%), Collagen 1 μg/mL (platelets [1]; [9]): 24.0 ± 3.3 % | Platelet Aggregation (%), Collagen 1 μg/mL (platelets [1]; [10]): 26.1 ± 4.0 % | Platelet Aggregation (%), Collagen 1 μg/mL (platelets [1]; [11]): 69.1 ± 6.5 % | Platelet Aggregation (%), Collagen 1 μg/mL (platelets [1]; [12]): 21.7 ± 4.2 % | Platelet Aggregation (%), Collagen 1 μg/mL (platelets [1]; [13]): 25.7 ± 5.2 % | Platelet Aggregation (%), Collagen 1 μg/mL (platelets [1]; [14]): 72.8 ± 7.5 % | inhibition of conventional platelet aggregation induced by collagen (platelets [1]; [15]): 15-20% | inhibition of collagen-induced platelet aggregation in plasma (platelets [1]; overall summary of the study): 10-15% | TRAP-induced aggregation, effect in words (platelets [2]; [4]): fully inhibiting | TRAP-induced aggregation, effect in words (platelets [2]; [5]): profound blockade | Platelet Aggregation (%), TRAP 10 μM (platelets [2]; [6]): 2.2 ± 1.6 % | Platelet Aggregation (%), TRAP 10 μM (platelets [2]; [7]): 2.7 ± 1.4 % | Platelet Aggregation (%), TRAP 10 μM (platelets [2]; [8]): 2.1 ± 1.2 % | Platelet Aggregation (%), TRAP 10 μM (platelets [2]; [9]): 1.8 ± 1.0 % | Platelet Aggregation (%), TRAP 10 μM (platelets [2]; [10]): 3.3 ± 1.8 % | Platelet Aggregation (%), TRAP 10 μM (platelets [2]; [11]): 1.3 ± 1.2 % | Platelet Aggregation (%), TRAP 10 μM (platelets [2]; [12]): 2.7 ± 2.2 % | Platelet Aggregation (%), TRAP 10 μM (platelets [2]; [13]): 2.9 ± 2.0 % | Platelet Aggregation (%), TRAP 10 μM (platelets [2]; [14]): 2.7 ± 1.8 % | TRAP-induced aggregation, effect in words (platelets [2]; [15]): inhibited completely | TRAP-induced aggregation, effect in words (platelets [2]; overall summary of the study): inhibited almost completely | PECAM-1 expression, effect in words (PECAM-1 (CD31); [16]): significant reduction | PECAM-1 (CD31), Mean Fluorescence Intensity (PECAM-1 (CD31); [17]): 55 ± 11 MFI | PECAM-1 (CD31), Mean Fluorescence Intensity (PECAM-1 (CD31); E5555 20 ng/ml, Patients (ASA)): 52 ± 9 MFI | PECAM-1 (CD31), Mean Fluorescence Intensity (PECAM-1 (CD31); E5555 20 ng/ml, Volunteers): 64 ± 10 MFI | PECAM-1 (CD31), Mean Fluorescence Intensity (PECAM-1 (CD31); [18]): 51 ± 9 MFI | PECAM-1 (CD31), Mean Fluorescence Intensity (PECAM-1 (CD31); E5555 50 ng/ml, Patients (ASA)): 53 ± 7 MFI | PECAM-1 (CD31), Mean Fluorescence Intensity (PECAM-1 (CD31); E5555 50 ng/ml, Volunteers): 60 ± 8 MFI | PECAM-1 (CD31), Mean Fluorescence Intensity (PECAM-1 (CD31); [19]): 54 ± 8 MFI | PECAM-1 (CD31), Mean Fluorescence Intensity (PECAM-1 (CD31); [20]): 57 ± 10 MFI | PECAM-1 (CD31), Mean Fluorescence Intensity (PECAM-1 (CD31); E5555 100 ng/ml, Volunteers): 64 ± 11 MFI | GPIb expression, effect in words (GPIb (CD42b); [16]): significant reduction | GPIb (CD42b), Mean Fluorescence Intensity (GPIb (CD42b); [17]): 103 ± 7 MFI | GPIb (CD42b), Mean Fluorescence Intensity (GPIb (CD42b); E5555 20 ng/ml, Patients (ASA)): 106 ± 5 MFI | GPIb (CD42b), Mean Fluorescence Intensity (GPIb (CD42b); E5555 20 ng/ml, Volunteers): 162 ± 19 MFI | GPIb (CD42b), Mean Fluorescence Intensity (GPIb (CD42b); [18]): 94 ± 12 MFI | GPIb (CD42b), Mean Fluorescence Intensity (GPIb (CD42b); E5555 50 ng/ml, Patients (ASA)): 109 ± 7 MFI | GPIb (CD42b), Mean Fluorescence Intensity (GPIb (CD42b); E5555 50 ng/ml, Volunteers): 145 ± 20 MFI | GPIb (CD42b), Mean Fluorescence Intensity (GPIb (CD42b); [19]): 100 ± 15 MFI | GPIb (CD42b), Mean Fluorescence Intensity (GPIb (CD42b); [20]): 111 ± 10 MFI | GPIb (CD42b), Mean Fluorescence Intensity (GPIb (CD42b); E5555 100 ng/ml, Volunteers): 157 ± 16 MFI | CD40-ligand, effect in words (CD-40L (CD154); [16]): not affected | CD-40L (CD154), Mean Fluorescence Intensity (CD-40L (CD154); [17]): 5.1 ± 1.0 MFI | CD-40L (CD154), Mean Fluorescence Intensity (CD-40L (CD154); E5555 20 ng/ml, Patients (ASA)): 5.0 ± 1.0 MFI | CD-40L (CD154), Mean Fluorescence Intensity (CD-40L (CD154); E5555 20 ng/ml, Volunteers): 5.4 ± 0.8 MFI | CD-40L (CD154), Mean Fluorescence Intensity (CD-40L (CD154); [18]): 5.2 ± 0.7 MFI | CD-40L (CD154), Mean Fluorescence Intensity (CD-40L (CD154); E5555 50 ng/ml, Patients (ASA)): 5.2 ± 0.8 MFI | CD-40L (CD154), Mean Fluorescence Intensity (CD-40L (CD154); E5555 50 ng/ml, Volunteers): 5.3 ± 0.5 MFI | CD-40L (CD154), Mean Fluorescence Intensity (CD-40L (CD154); [19]): 5.3 ± 1.3 MFI | CD-40L (CD154), Mean Fluorescence Intensity (CD-40L (CD154); [20]): 5.1 ± 1.0 MFI | CD-40L (CD154), Mean Fluorescence Intensity (CD-40L (CD154); E5555 100 ng/ml, Volunteers): 5.0 ± 0.9 MFI | WEDE15, Mean Fluorescence Intensity (WEDE15; [17]): 30 ± 8 MFI | WEDE15, Mean Fluorescence Intensity (WEDE15; E5555 20 ng/ml, Patients (ASA)): 40 ± 11 MFI | WEDE15, Mean Fluorescence Intensity (WEDE15; E5555 20 ng/ml, Volunteers): 40 ± 9 MFI | WEDE15, Mean Fluorescence Intensity (WEDE15; [18]): 27 ± 6 MFI | WEDE15, Mean Fluorescence Intensity (WEDE15; E5555 50 ng/ml, Patients (ASA)): 38 ± 8 MFI | WEDE15, Mean Fluorescence Intensity (WEDE15; E5555 50 ng/ml, Volunteers): 41 ± 6 MFI | WEDE15, Mean Fluorescence Intensity (WEDE15; [19]): 29 ± 12 MFI | WEDE15, Mean Fluorescence Intensity (WEDE15; [20]): 35 ± 5 MFI | WEDE15, Mean Fluorescence Intensity (WEDE15; E5555 100 ng/ml, Volunteers): 40 ± 10 MFI | Thrombospondin-Receptor (CD36), Mean Fluorescence Intensity [3, 17]: 6 ± 1 MFI | Thrombospondin-Receptor (CD36), Mean Fluorescence Intensity ([3]; E5555 20 ng/ml, Patients (ASA)): 6 ± 2 MFI | Thrombospondin-Receptor (CD36), Mean Fluorescence Intensity ([3]; E5555 20 ng/ml, Volunteers): 9 ± 1 MFI | Thrombospondin-Receptor (CD36), Mean Fluorescence Intensity [3, 18]: 5 ± 1 MFI | Thrombospondin-Receptor (CD36), Mean Fluorescence Intensity ([3]; E5555 50 ng/ml, Patients (ASA)): 7 ± 1 MFI | Thrombospondin-Receptor (CD36), Mean Fluorescence Intensity ([3]; E5555 50 ng/ml, Volunteers): 9 ± 2 MFI | Thrombospondin-Receptor (CD36), Mean Fluorescence Intensity [3, 19]: 6 ± 2 MFI | Thrombospondin-Receptor (CD36), Mean Fluorescence Intensity [3, 20]: 7 ± 2 MFI | Thrombospondin-Receptor (CD36), Mean Fluorescence Intensity ([3]; E5555 100 ng/ml, Volunteers): 9 ± 1 MFI
